Measurements reported in patent publication US10550379B2, “Degron fusion constructs and methods for controlling protein production” (THE BOARD OF TRUSTEES OF THE LELAND STANFORD JUNIOR …, priority 2015, dated 2020).
Entries after “also recorded” stand apart in the source; their conditions may differ. Peptide text beside a SMILES is read from it. * marks the point of attachment. Cbz = O=C(OCc1ccccc1)*

Assays:
YFP-NS3pro-NS4A = assay: degradation pathway of YFP-NS3pro-NS4A in HeLa cells; format: cell-based; details: ASV 1 μM, 18 to 24 hours post-transfection, MG132 10 μM, bortezomib 66 nM, chloroquine 100 μM, bafilomycin-A1 200 nM
Excerpt: FIGS. 8A-8D show characterization of a degron contained in NS3pro-NS4A. […] The hydrophobic N-terminal of NS4A then inserts into the membrane (right). Elements are numbered from N-terminus to C-terminus to clarify order of linkage. […] Removal of the NS3 helicase domain may expose hydrophobic residues in the helicase C-terminus and prevent cleavage at the NS3/4A site, preventing membrane insertion of NS4A. Models were generated using PDB file 1CU1. […] HeLa cells expressed YFP (FIG. 8C) or PSD95 (FIG. 8D) fused to NS3pro-NS4A (wt), or the degron-disrupted mutant (GGS). From 18 to 24 hours post-transfection, cells were treated with ASV (1 μM) and degradation inhibitors (MG, MG132 10 μM; BTZ, bortezomib 66 nM; CHQ, chloroquine 100 μM; BAF, bafilomycin-A1 200 nM). This short time window was used to avoid toxicity by degradation inhibitors. Final DMSO concentration was 0.23% (v/v) for all conditions in (FIG. 8C) and 0.33% for all conditions in (FIG. 8D).
To determine which cellular proteolytic pathways were responsible for degrading NS3pro-NS4A fusions, we examined the effect of inhibiting proteasomes or autophagosomes. We allowed cells expressing YFP-NS3pro-NS4A to produce uncleaved YFP-NS3pro-NS4A in asunaprevir while applying inhibitors of proteasome or autophagosome degradation (FIG. 8C).
Chemical Reagents. […]. Further serial dilutions were performed for the dose-dependency experiment. For long-term CLV and ASV incubations, drug was applied simultaneously with transfection media or 1-2 hours after transfection. MG132 (Sigma) was dissolved in DMSO for a 1000× working stock of 10 mM. Bortezomib (Adooq Biosci.) was dissolved in DMSO for a 500× working stock of 33 μM. Chloroquine diphosphate salt (Sigma) was dissolved in H2O for a 1000× (100 mM) working stock. Bafilomycin A1 (Santa Cruz) was dissolved in DMSO for a 500× (100 μM) working stock. Azidohomoalanine (AHA) (Click-IT, Invitrogen) was dissolved in DMSO for a 500× working stock of 25 mM. Alkyne-PEG4-biotin (Invitrogen) was dissolved in DMSO for a 100× working stock of 4 mM. L-cystine dihydrochloride (Sigma) was dissolved in H2O pH 2.0 for a working stock of 0.1 M.

GluRIIA-CFP-SMASh = GluRIIA-CFP-SMASh (Hepatitis C virus genotype 1a, UniProt P27958, T1080A/T1100M/T1173A); format: cell-based, Drosophila; details: HEK293, 24 hours
[1] = tested on: AID target protein expressed from the ADH promoter; details: cited from earlier work
HEK293 cells = assay: protein half-life by SMASh shutoff, immunoblotting and mathematical model
SMASh-Arc = assay: optimization of N-terminal SMASh tag on Arc in HEK293 cells, immunoblot; details: HEK293, 24 hours
SEC14-SMASh yeast = assay: yeast spotting assay, SEC14-SMASh knock-in; details: ASV (3 μM), 48 hours
MeV-EGFP-P-SMASh = assay: drug control of MeV-EGFP-P-SMASh in infected Vero cells
SMASh-YFP or YFP-SMASh [2] = assay: SMASh tag at either terminus of YFP in HEK293 cells; format: cell-based; details: HEK293, 24 hours
Excerpt: NS3 protease sequence (light gray), sequence derived from NS3 helicase (dark gray), and sequence derived from NS4A (medium gray) are shown. NS5A/5B-based protease substrate site is in dark gray. […] DMSO was used as vehicle control. β-actin served as a loading control. […] Scale bar, […].

MeV-EGFP = assay: drug effect on parental MeV-EGFP in infected Vero cells; details: presence of asunaprevir, 72 hours
YSH1-SMASh yeast = assay: yeast spotting assay, YSH1-SMASh knock-in; details: ASV (10 μM), 48 hours
[3] = tested on: panel of cellular proteases; details: 1.5 μM; cited from earlier work
SMASh-YFP or YFP-SMASh [4] = assay: drug repression of SMASh-tagged YFP in budding yeast; format: cell-based, S. cerevisiae; details: 24 hours, SD media
Excerpt: When expressed in yeast from an episomal gene, we found the C-terminal SMASh tag with a protease cleavage site of sequence DEMEEC/S was able to confer drug repression on YFP expression, similarly to its performance in mammalian cells (FIG. 5A, lane 4-6). However, the N-terminal SMASh tag and fast-cleaving site (EDVVPC/S) used in mammalian cells allowed leaky expression of YFP in yeast in the presence of drug (data not shown). […] . […] To the best of our knowledge, SMASh is the first method that uses a single genetic element to impose drug control over the expression of specific proteins in yeast.
Yeast Strains and Cell Growth.

[5] = in vivo, po; cited from earlier work

CC(C)C[C@@H](C=O)NC(=O)[C@H](CC(C)C)NC(=O)[C@H](CC(C)C)NC(=O)OCc1ccccc1 [MG132] (Cbz-Leu-Leu-Leu-aldehyde)
YFP-NS3pro-NS4A protein levels (YFP-NS3pro-NS4A): modestly increased

COc1ccc2c(O[C@@H]3C[C@H]4C(=O)N[C@]5(C(=O)O)C[C@H]5/C=C\CCCCC[C@H](NC(=O)OC5CCCC5)C(=O)N4C3)cc(-c3csc(NC(C)C)n3)nc2c1 [ciluprevir]
GluRIIA expression (GluRIIA-CFP-SMASh): shutoff

O=C(O)Cc1c[nH]c2ccccc12 [auxin]
concentration required for AID to degrade a target protein [1]: 1000 µM

CYP21A2: short-lived protein, released from CYP21A2-SMASh by cleavage
acceleration of degradation by SMASh (HEK293 cells): 9 fold | decay rate constant kdeg (HEK293 cells): 8.67e-05 s⁻¹ | production rate constant ksyn (HEK293 cells; 24-28 hours post-transfection): 0.438 h⁻¹

CO/C1=C\C(C)=C\[C@@H](C)[C@@H](O)[C@@H](C)C/C(C)=C/C=C/[C@H](OC)[C@@H]([C@@H](C)[C@@H](O)[C@H](C)[C@@]2(O)C[C@@H](O)[C@H](C)[C@@H](C(C)C)O2)OC1=O [bafilomycin A1]
YFP-NS3pro-NS4A protein levels (YFP-NS3pro-NS4A): modestly increased

CC(C)C[C@H](NC(=O)[C@H](Cc1ccccc1)NC(=O)c1cnccn1)B(O)O [bortezomib]
YFP-NS3pro-NS4A protein levels (YFP-NS3pro-NS4A): modestly increased

C=C[C@@H]1C[C@]1(NC(=O)[C@@H]1C[C@@H](Oc2ncc(OC)c3ccc(Cl)cc23)CN1C(=O)[C@@H](NC(=O)OC(C)(C)C)C(C)(C)C)C(=O)NS(=O)(=O)C1CC1 [asunaprevir]
Arc protein suppression, 6-aa linker with the NS5A/5B substrate (SMASh-Arc): complete protein suppression | Arc protein suppression, 18-aa linker with the NS5A/5B substrate (SMASh-Arc): incomplete | growth of SEC14-SMASh yeast (SEC14-SMASh yeast): complete growth inhibition | suppression of EGFP fluorescence compared to the untreated case (MeV-EGFP-P-SMASh; 3 μM ASV, 3 days post-transfection (so in the source), Vero cells): 97.3% | P production in virus-infected cells, immunoblotting (MeV-EGFP-P-SMASh; presence of asunaprevir): efficiently inhibited | EGFP expression and formation of syncytia (MeV-EGFP-P-SMASh; presence of asunaprevir, Vero cells, 72 hours): completely abolished | YFP fluorescence in living cells (SMASh-YFP or YFP-SMASh [2]): nearly undetectable | cleaved and full-length YFP protein, immunoblot (SMASh-YFP or YFP-SMASh [2]; N-terminal or C-terminal fusions): significantly reduced | EGFP expression and formation of syncytia by parental virus (MeV-EGFP): unaffected | growth of YSH1-SMASh yeast (YSH1-SMASh yeast): suppressed | activity against a panel of cellular proteases [3]: no activity | YFP expression, episomal, GPD promoter (SMASh-YFP or YFP-SMASh [4]; 3 μM asunaprevir): undetectable levels; also recorded: completely suppressed | YFP expression, YFP-SMASh integrated into yeast chromosome, GPD promoter (SMASh-YFP or YFP-SMASh [4]; ASV, immunoblot): shutoff | concentration that can be maintained in plasma and organs for hours [5]: 150 nM

CCN(CC)CCCC(C)Nc1ccnc2cc(Cl)ccc12 (centres unmarked) [chloroquine]
YFP-NS3pro-NS4A protein levels (YFP-NS3pro-NS4A): modestly increased
